Results taken from patent publication US12662489B2 (Sitryx Therapeutics Limited, priority 2023, dated 2026).

Key:
[1] = target: T1, MTHFD1 recombinant human enzyme (Homo sapiens, UniProt P11586); test: MTHFD1 inhibition assay (NAD(P)H-Glo luminescence); conditions: MTHFD1 IC50, recombinant human enzyme 200 nM, NADP, band
T1 sequence (P11586 2-291 limits assumed): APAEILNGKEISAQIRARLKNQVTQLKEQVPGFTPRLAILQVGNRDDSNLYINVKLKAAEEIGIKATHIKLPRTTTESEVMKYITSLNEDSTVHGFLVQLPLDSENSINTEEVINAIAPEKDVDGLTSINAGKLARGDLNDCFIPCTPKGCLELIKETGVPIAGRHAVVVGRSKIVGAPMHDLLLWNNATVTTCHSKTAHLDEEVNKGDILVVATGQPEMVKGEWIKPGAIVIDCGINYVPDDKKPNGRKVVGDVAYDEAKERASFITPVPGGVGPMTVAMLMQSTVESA

[2] = target: T2, MTHFD2 recombinant human enzyme (Homo sapiens, UniProt P13995); test: MTHFD2 inhibition assay (NAD(P)H-Glo luminescence); conditions: for MTHFD1/MTHFD2 IC50 ratio: selectivity of MTHFD2 inhibition over MTHFD1, band
T2 sequence (P13995 36-350): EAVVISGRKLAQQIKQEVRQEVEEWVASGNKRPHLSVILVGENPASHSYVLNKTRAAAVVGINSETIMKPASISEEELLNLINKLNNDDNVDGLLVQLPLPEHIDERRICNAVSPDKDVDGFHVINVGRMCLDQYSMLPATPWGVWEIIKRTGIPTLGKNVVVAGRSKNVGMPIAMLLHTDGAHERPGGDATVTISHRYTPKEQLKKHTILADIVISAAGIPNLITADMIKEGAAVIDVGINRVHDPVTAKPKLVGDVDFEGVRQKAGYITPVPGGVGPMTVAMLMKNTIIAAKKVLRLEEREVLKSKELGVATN

Compound | IC50 [1] | IC50 [2] | MTHFD1/MTHFD2 IC50 ratio [2]
COC[C@H]1CN(c2cc(C)c3c4c(c(=O)oc3c2C)CN(C(=O)c2ccc(C(=O)NS(=O)(=O)N(C)C)c(OC3C5CC6CC(C5)CC3C6)c2)CC4)CCN1C (stereo partly drawn) [Example 100, 2-((adamantan-2-yl)oxy)-N-(N,N-dimethylsulfamoyl)-4-(8-((R)-3-(methoxymethyl)-4-methylpiperazin-1-yl)-7,10-dimethyl-5-oxo-1,3,4,5-tetrahydro-2H-chromeno[3,4-c]pyridine-3-carbonyl)benzamide] | 10 to 100 nM | 10 to 100 nM | F (<3)
COC[C@H]1CN(c2cc(C)c3c4c(c(=O)oc3c2C)CN(C(=O)c2ccc(C(=O)NS(=O)(=O)N3C5CCC3CC5)cc2Cl)CC4)CCN1C [Example 185, (R)-N-((7-azabicyclo[2.2.1]heptan-7-yl)sulfonyl)-3-chloro-4-(8-(3-(methoxymethyl)-4-methylpiperazin-1-yl)-7,10-dimethyl-5-oxo-1,3,4,5-tetrahydro-2H-chromeno[3,4-c]pyridine-3-carbonyl)benzamide] | > 5000 nM | 100 to 1000 nM | H (>9.0 to 30)
COC[C@H]1CN(c2cc(C)c3c4c(c(=O)oc3c2C)CN(C(=O)c2ccc(C(=O)NS(=O)(=O)N3C5CCC3COC5)c(OC)c2F)CC4)CCN1C [Example 158, N-((3-oxa-8-azabicyclo[3.2.1]octan-8-yl)sulfonyl)-3-fluoro-2-methoxy-4-(8-((R)-3-(methoxymethyl)-4-methylpiperazin-1-yl)-7,10-dimethyl-5-oxo-1,3,4,5-tetrahydro-2H-chromeno[3,4-c]pyridine-3-carbonyl)benzamide] | 100 to 1000 nM | 10 to 100 nM | H (>9.0 to 30)

The next lines start with the values.

IC50 [1] | IC50 [2] | MTHFD1/MTHFD2 IC50 ratio [2] | Compound
100 to 1000 nM | 10 to 100 nM | G (^ 3 to 9.0) | COC[C@H]1CN(c2ccc3c4c(c(=O)oc3c2C)CN(C(=O)c2cc(N3CCC3)c(C(=O)NS(=O)(=O)N3CCCC3)cc2F)CC4)CCN1C [Example 194, (R)-2-(azetidin-1-yl)-5-fluoro-4-(8-(3-(methoxymethyl)-4-methylpiperazin-1-yl)-7-methyl-5-oxo-1,3,4,5-tetrahydro-2H-chromeno[3,4-c]pyridine-3-carbonyl)-N-(pyrrolidin-1-ylsulfonyl)benzamide]
100 to 1000 nM | 10 to 100 nM | H (>9.0 to 30) | CCOc1cc(C(=O)N2CCc3c(c(=O)oc4c(C)c(N5CCN(C)[C@@H](COC)C5)cc(Cl)c34)C2)c(F)cc1C(=O)NS(=O)(=O)C1(C)CC1 [Example 299, (R)-4-(10-chloro-8-(3-(methoxymethyl)-4-methylpiperazin-1-yl)-7-methyl-5-oxo-1,3,4,5-tetrahydro-2H-chromeno[3,4-c]pyridine-3-carbonyl)-2-ethoxy-5-fluoro-N-((1-methylcyclopropyl)sulfonyl)benzamide]
100 to 1000 nM | 10 to 100 nM | J (>30) | COC[C@H]1CN(c2cc(Cl)c3c4c(c(=O)oc3c2C)CN(C(=O)c2cc(N(C)C)c(C(=O)NS(=O)(=O)N3CCC[C@@H]3COC)cc2F)CC4)CCN1C [Example 290, 4-(10-chloro-8-((R)-3-(methoxymethyl)-4-methylpiperazin-1-yl)-7-methyl-5-oxo-1,3,4,5-tetrahydro-2H-chromeno[3,4-c]pyridine-3-carbonyl)-2-(dimethylamino)-5-fluoro-N-(((R)-2-(methoxymethyl)pyrrolidin-1-yl)sulfonyl)benzamide]
100 to 1000 nM | 10 to 100 nM | – | COC[C@H]1CN(c2cc(C)c3c4c(c(=O)oc3c2C)CN(C(=O)c2cc(N(C)C)c(C(=O)NS(=O)(=O)N3CCC(C(F)(F)F)CC3)cc2F)CC4)CCN1C [Example 296, (R)-2-(dimethylamino)-5-fluoro-4-(8-(3-(methoxymethyl)-4-methylpiperazin-1-yl)-7,10-dimethyl-5-oxo-1,3,4,5-tetrahydro-2H-chromeno[3,4-c]pyridine-3-carbonyl)-N-((4-(trifluoromethyl)piperidin-1-yl)sulfonyl)benzamide]
